Common to all, as to format: cell-based
The target in one experiment is T1, PopeOR1 (Phthorimaea operculella, UniProt A0A8K1YT58).
T1 construct: full-length ORF, co-expressed with PopeOrco in Xenopus oocytes; with PopeOrco
T1 sequence (A0A8K1YT58 1-435): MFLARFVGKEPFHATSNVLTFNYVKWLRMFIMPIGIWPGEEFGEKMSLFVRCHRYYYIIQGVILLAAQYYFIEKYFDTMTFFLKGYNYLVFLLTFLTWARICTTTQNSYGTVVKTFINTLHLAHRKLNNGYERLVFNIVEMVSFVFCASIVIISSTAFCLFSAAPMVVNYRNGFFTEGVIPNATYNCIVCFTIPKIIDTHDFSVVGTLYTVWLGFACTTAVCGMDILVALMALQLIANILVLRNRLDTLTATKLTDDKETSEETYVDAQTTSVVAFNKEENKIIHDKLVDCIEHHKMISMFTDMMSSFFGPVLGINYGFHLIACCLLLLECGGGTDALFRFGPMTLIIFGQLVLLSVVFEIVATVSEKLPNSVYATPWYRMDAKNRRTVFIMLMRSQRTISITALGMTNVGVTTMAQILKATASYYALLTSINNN
T1 sequence (A0A8K1YT59 1-473 partner): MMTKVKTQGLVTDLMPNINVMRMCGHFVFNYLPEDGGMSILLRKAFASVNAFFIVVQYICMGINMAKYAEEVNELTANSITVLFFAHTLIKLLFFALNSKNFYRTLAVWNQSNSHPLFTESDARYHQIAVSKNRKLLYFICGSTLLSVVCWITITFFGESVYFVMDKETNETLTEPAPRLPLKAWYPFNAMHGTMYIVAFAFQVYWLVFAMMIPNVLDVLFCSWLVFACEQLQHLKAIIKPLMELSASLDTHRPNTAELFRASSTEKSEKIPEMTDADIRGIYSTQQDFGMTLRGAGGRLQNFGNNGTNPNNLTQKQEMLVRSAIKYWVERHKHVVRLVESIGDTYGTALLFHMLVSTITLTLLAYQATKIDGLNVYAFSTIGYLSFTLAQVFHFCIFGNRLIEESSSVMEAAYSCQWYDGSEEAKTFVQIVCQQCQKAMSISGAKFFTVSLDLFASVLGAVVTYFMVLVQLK
As to the kind of experiment: two-electrode voltage clamp in Xenopus oocytes.

For experiment [1], the target named is T2, PopeOR3 (Phthorimaea operculella, UniProt A0A8K1YT60).
T2 construct: full-length ORF, co-expressed with PopeOrco in Xenopus oocytes; with PopeOrco
T2 sequence (A0A8K1YT60 1-404): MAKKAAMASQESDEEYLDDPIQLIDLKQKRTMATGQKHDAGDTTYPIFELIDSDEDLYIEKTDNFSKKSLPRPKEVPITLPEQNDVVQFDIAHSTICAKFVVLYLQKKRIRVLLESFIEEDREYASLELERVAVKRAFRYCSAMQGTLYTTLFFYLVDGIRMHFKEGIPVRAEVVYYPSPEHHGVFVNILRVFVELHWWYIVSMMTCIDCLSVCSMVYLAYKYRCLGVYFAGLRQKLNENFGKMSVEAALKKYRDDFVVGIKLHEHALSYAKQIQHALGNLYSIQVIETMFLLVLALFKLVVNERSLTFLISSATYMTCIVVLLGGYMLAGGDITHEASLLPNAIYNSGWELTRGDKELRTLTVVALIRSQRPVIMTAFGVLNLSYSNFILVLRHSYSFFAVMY
T2 sequence (A0A8K1YT59 1-473 partner): T1 sequence (A0A8K1YT59 1-473 partner)
As to the kind of experiment: two-electrode voltage clamp in Xenopus oocytes. On the technique in general: Two-electrode voltage clamp is typically applied to oocytes expressing channels or transporters.

Experiment [2] has as its target T2, PopeOR3. The experiment in a line: two-electrode voltage clamp in Xenopus oocytes, weak current at […].

Molecules are shown by their SMILES. pEC50: −log10 of the molar value.

Turning to `CC/C=C\C/C=C\C/C=C/CCCOC(C)=O` [(E, Z, Z)-4,7,10–13: OAc, tran-4, cis-7, cis-10-tridecatrienyl acetate], the values for the pEC50 at PopeOR1 and on PopeOR3 [1] were 4.41 and 4.05, respectively.

At PopeOR1, `CCCCC/C=C\C/C=C/CCCOC(C)=O` [(E, Z)-4,7–13: OAc, trans-4, cis-7-tridecadienyl acetate] showed a pEC50 of 4.14. Further, the “two-electrode voltage clamp in Xenopus oocytes, weak current at 10^-4 M” value on PopeOR3 [2] was 29.41 ± 6.87 nA.

The term pEC50 denotes the negative decadic logarithm of the EC50, by convention in mol/L.

Values taken from publication PMC7868389, “Identification and Functional Characterization of Two Putative Pheromone Receptors in the Potato Tuber Moth, Phthorimaea operculella” (Frontiers in Physiology, 2021).
